Consider 49 molecules from ChEMBL document CHEMBL5143747, “Discovery and Optimization of Triazolopyrimidinone Derivatives as Selective NLRP3 Inflammasome Inhibitors” (ACS Med Chem Lett, 2022).

In series [1] the target is T1, NACHT, LRR and PYD domains-containing protein 3 (Homo sapiens, UniProt Q96P20). As to the kind of experiment: Inhibition of NLRP3 inflammasome in LPS-pretreated PBMC (unknown origin) assessed as reduction in IL-1beta release pretreated for 30 mins followed by ATP stimulated and measured after 1 hr by ELISA. It is filed as cell-based. (In general: An ELISA detects its analyte on a solid surface through an enzyme-linked reagent.)
T1 sequence (Q96P20 whole entry, the tested form may be a part): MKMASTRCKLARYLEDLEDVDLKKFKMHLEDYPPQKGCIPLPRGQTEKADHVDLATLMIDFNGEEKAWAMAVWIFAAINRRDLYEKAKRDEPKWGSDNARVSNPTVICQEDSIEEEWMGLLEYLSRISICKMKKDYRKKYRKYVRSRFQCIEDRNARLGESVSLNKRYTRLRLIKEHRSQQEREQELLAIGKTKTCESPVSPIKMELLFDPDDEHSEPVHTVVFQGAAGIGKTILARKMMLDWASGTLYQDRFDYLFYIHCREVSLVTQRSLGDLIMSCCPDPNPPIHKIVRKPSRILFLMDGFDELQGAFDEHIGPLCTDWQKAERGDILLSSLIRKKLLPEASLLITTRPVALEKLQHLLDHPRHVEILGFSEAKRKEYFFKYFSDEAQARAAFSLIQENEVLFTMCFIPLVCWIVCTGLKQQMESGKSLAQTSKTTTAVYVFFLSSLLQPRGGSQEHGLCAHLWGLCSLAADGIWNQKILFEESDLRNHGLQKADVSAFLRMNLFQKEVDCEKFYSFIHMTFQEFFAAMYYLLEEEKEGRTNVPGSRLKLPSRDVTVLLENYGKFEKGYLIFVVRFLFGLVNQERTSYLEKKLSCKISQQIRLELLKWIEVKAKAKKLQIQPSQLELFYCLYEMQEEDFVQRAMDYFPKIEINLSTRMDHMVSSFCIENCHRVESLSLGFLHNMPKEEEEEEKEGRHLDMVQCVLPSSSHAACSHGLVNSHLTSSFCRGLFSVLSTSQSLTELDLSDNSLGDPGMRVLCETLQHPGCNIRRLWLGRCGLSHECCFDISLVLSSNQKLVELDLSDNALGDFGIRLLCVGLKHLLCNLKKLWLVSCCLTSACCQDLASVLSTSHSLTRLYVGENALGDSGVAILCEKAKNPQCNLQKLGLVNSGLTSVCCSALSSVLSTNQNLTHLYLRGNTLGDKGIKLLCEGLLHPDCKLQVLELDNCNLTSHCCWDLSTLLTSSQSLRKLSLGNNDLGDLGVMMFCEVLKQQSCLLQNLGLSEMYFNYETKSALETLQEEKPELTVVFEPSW

Series [2] deals with T1, NACHT, LRR and PYD domains-containing protein 3. As to the kind of experiment: Inhibition of NLRP3 inflammasome in LPS-pretreated PBMC (unknown origin) assessed as reduction in IL-1beta release at 40 uM pretreated for 30 mins followed by ATP stimulated and measured after 1 hr by ELISA relative to control. Format: cell-based. To be noted: time 90.0 min.
A short description of series [3]: Inhibition of LPS-stimulated TNF-alpha release in human PBMC measured after 4 hrs by ELISA. It is filed as toxicity, cell-based.
A short description of series [4]: Protein binding in rat plasma. To be noted: read-out: PPB (converted). Format: ADME, cell-free.
A short description of series [5]: Thermodynamic solubility of compound in pH 7.4 phosphate buffer incubated for 24 hrs under shaking condition by UPLC analysis. It is filed as physicochemical. To be noted: read-out: Therm_solubility.
The nature of series [6]: Protein binding in human plasma. Format: ADME, cell-free. To be noted: read-out: PPB (converted).
Series [7] can be described thus: Protein binding in mouse plasma. It is filed as ADME, cell-free. The following applies: read-out: PPB (converted).
The nature of series [8]: Inhibition of LPS-stimulated IL-6 release in human PBMC measured after 4 hrs by ELISA. Format: toxicity, cell-based.
Series [9] in a line: Permeability of compound in pH 7.4 phosphate buffered saline at 10 uM measured after 4 hrs by PAMPA. It is filed as ADME. To be noted: read-out: permeability. (In general: The PAMPA barrier holds no transporters, so it reflects passive diffusion.)
The target in series [10] is T1, NACHT, LRR and PYD domains-containing protein 3. The series can be described thus: Inhibition of NLRP3 inflammasome in LPS-pretreated human THP1-ASC-GFP cells assessed as reduction in speck positive cells measured after 30 mins in presence of caspase inhibitor zVAD-FMK by Hoechst 33342 staining based confocal microscopy. It is filed as cell-based.
Series [11] has the same target. The series can be described thus: Inhibition of NLRP3 inflammasome in LPS-pretreated human whole blood assessed as reduction in IL-1beta release pretreated for 30 mins followed by ATP stimulated and measured after 1 hr by HTRF assay. It is filed as tissue-based.

In brackets after ≈: the same amount, converted by molar mass.

Regarding `O=c1cc(CN2CCOCC2)[nH]c2nc(Nc3c4c(cc5c3CCC5)CCC4)nn12`, in [1] (read-out: IC50), the IC50 (in general, the concentration that gives 50% inhibition) was found to be 7.8 µM.

`Cc1[nH]c2nc(Nc3c4c(cc5c3CCC5)CCC4)nn2c(=O)c1C`: in series [1] (read-out: IC50), the IC50 is greater than 40 µM. As for `O=c1cc(Cc2ncccn2)[nH]c2nc(Nc3c4c(cc5c3CCC5)CCC4)nn12`, in series [1] (read-out: IC50), the IC50 was determined as 1.7 µM.

As for `O=c1cc(CC2CCOCC2)[nH]c2nc(Nc3c4c(cc5c3CCC5)CCC4)nn12`, the IC50 in [1] (read-out: IC50) is 3.4 µM. For `O=c1cc[nH]c2nc(Nc3c4c(cc5c3CCC5)CCC4)nn12`, the inhibition (commonly how much of the control response was suppressed) in [2] is 77%. `N#Cc1cccc(Cc2cc(=O)n3nc(Nc4c5c(cc6c4CCC6)CCC5)nc3[nH]2)c1`: the IC50 in series [1] (read-out: IC50) came out at 2.4 µM.

Turning to `Cc1cc2[nH]c(Nc3c4c(cc5c3CCC5)CCC4)nn2c(=O)n1`, in series [1] (read-out: IC50), the IC50 is greater than 40 µM.

Regarding `N#Cc1ccc(Cc2cc(=O)n3nc(Nc4c5c(cc6c4CCC6)CCC5)nc3[nH]2)cc1`, in [1] (read-out: IC50), the IC50 is 1.6 µM. For the molecule `Cc1cc(=O)n2nc(Nc3c4c(cc5c3CCC5)CCC4)cc2[nH]1`, the inhibition in series [2] is 57%.

On to `Cc1cc(=O)n2nc(Nc3c4c(cc5c3CCC5)CCC4)nc2[nH]1`, for which the inhibition in series [2] is 70%. Take `COCCc1cc(=O)n2nc(Nc3c4c(cc5c3CCC5)CCC4)nc2[nH]1`: the IC50 in [1] (read-out: IC50) worked out at 2.8 µM.

In the case of `O=c1cc(Cc2ccc(Cl)cc2)[nH]c2nc(Nc3c4c(cc5c3CCC5)CCC4)nn12`, the IC50 in series [1] (read-out: IC50) worked out at 10 µM. Still for that read-out and setting: the same measure for `O=c1cc(C2CCNCC2)[nH]c2nc(Nc3c4c(cc5c3CCC5)CCC4)nn12`: greater than 40 µM.

For the molecule `O=c1cc(C2CCCNC2)[nH]c2nc(Nc3c4c(cc5c3CCC5)CCC4)nn12` (stereo not drawn), the IC50 in [1] (read-out: IC50) was greater than 40 µM.

With `Cc1c[nH]c2nc(Nc3c4c(cc5c3CCC5)CCC4)nn2c1=O`, the IC50 in series [1] (read-out: IC50) is greater than 40 µM. With `CN1CCN(Cc2cc(=O)n3nc(Nc4c5c(cc6c4CCC6)CCC5)nc3[nH]2)CC1`, the IC50 in [1] (read-out: IC50) is greater than 40 µM. Still for that read-out and setting: the same measure for `O=c1cc(CCc2ccccc2)[nH]c2nc(Nc3c4c(cc5c3CCC5)CCC4)nn12`: 3.4 µM; for `O=c1cc(Cc2cccnc2)[nH]c2nc(Nc3c4c(cc5c3CCC5)CCC4)nn12`: 3.4 µM. Still for that read-out and setting: the value for `CCc1cc(=O)n2nc(Nc3c4c(cc5c3CCC5)CCC4)nc2[nH]1` was 8.7 µM.

With `N#Cc1ccccc1Cc1cc(=O)n2nc(Nc3c4c(cc5c3CCC5)CCC4)nc2[nH]1`, the IC50 entry in [1] (pbmc) is on record as “Nd(Insoluble)”. With `S=c1cc(CC2CCCCO2)[nH]c2nc(Nc3c4c(cc5c3CCC5)CCC4)nn12` (stereo not drawn), the IC50 in series [3] and in series [8] was greater than 20 µM in each case. Besides, the fraction unbound in series [4] is 0.002; in series [6], 0.001; in series [7], 0.004. Also, the solubility thermodynamic at 24 h in series [5] came out at 730 µM (≈ 308 µg/mL). Besides, the Papp at 4 h, 10 µM in [9] was less than 0.0004 ×10⁻⁶ cm/s. In the case of `S=c1cc(Cc2ccccn2)[nH]c2nc(Nc3c4c(cc5c3CCC5)CCC4)nn12`, the concentration for half-maximal inhibition (IC50) in series [3] and in [8] was greater than 40 µM in each case. The fraction unbound in series [4] was 0.015; in [6], 0.019; in series [7] it was 0.004. The solubility thermodynamic at 24 h in series [5] was found to be 1500 µM (≈ 622 µg/mL). Also, in series [9], the Papp at 4 h, 10 µM was less than 0.018 ×10⁻⁶ cm/s. Take `Cc1[nH]c2nc(Nc3c4c(cc5c3CCC5)CCC4)nn2c(=O)c1C#N`: in series [1] (read-out: IC50), the IC50 was greater than 40 µM. Turning to `O=c1cc(CC2CCCCO2)[nH]c2nc(Nc3c4c(cc5c3CCC5)CCC4)nn12` (stereo not drawn), the concentration for half-maximal inhibition (IC50) in series [10] was 1.3 µM; in series [3], greater than 40 µM; in [1] (read-out: IC50) it was 1.9 µM; in [8], greater than 40 µM; in [11] it was greater than 40 µM. For the same molecule, the solubility thermodynamic at 24 h in series [5] amounted to 24 µM (≈ 9.73 µg/mL). The values for the fraction unbound in series [6] and in [7] were 0.001 and 0.002, respectively. Further, in [9], the Papp at 4 h, 10 µM amounted to 0.038 ×10⁻⁶ cm/s. `Cn1cc(Cc2cc(=O)n3nc(Nc4c5c(cc6c4CCC6)CCC5)nc3[nH]2)cn1`: the IC50 in series [1] (read-out: IC50) was determined as 4.9 µM. On the same count and under the same terms, the value for `Cc1cc(=O)n2nc(Nc3c4c(cc5c3CCC5)CCC4)nc2n1C` was greater than 40 µM; that for `O=c1cc(Cc2ccccc2F)[nH]c2nc(Nc3c4c(cc5c3CCC5)CCC4)nn12` was 3.7 µM. Turning to `O=c1cc(Cc2ccccn2)[nH]c2nc(Nc3c4c(cc5c3CCC5)CCC4)nn12`, the IC50 in [3] and in series [8] was greater than 40 µM in each case. In addition, the solubility thermodynamic at 24 h in series [5] worked out at 2.4 µM (≈ 0.956 µg/mL). For the same molecule, the fraction unbound in series [6] is 0.002. Further, in series [9], the Papp at 4 h, 10 µM was less than 0.018 ×10⁻⁶ cm/s. For `O=c1cc(CC2COCCN2)[nH]c2nc(Nc3c4c(cc5c3CCC5)CCC4)nn12` (stereo not drawn), in series [1] (read-out: IC50), the IC50 was 5.4 µM. For `O=c1cc(Cc2ccncc2)[nH]c2nc(Nc3c4c(cc5c3CCC5)CCC4)nn12`, the IC50 in series [1] (read-out: IC50) turned out to be 5.8 µM. Still for that read-out and setting: the value for `Cn1cnc(Cc2cc(=O)n3nc(Nc4c5c(cc6c4CCC6)CCC5)nc3[nH]2)c1` was 5.5 µM; that for `COc1c(C)[nH]c2nc(Nc3c4c(cc5c3CCC5)CCC4)nn2c1=O` was greater than 40 µM. Still for that read-out and setting: the value for `CN1CCCC(c2cc(=O)n3nc(Nc4c5c(cc6c4CCC6)CCC5)nc3[nH]2)C1` (stereo not drawn) was 4.9 µM; that for `O=c1cc(C2CCOCC2)[nH]c2nc(Nc3c4c(cc5c3CCC5)CCC4)nn12` was 6.3 µM. `COc1ccc(Cc2cc(=O)n3nc(Nc4c5c(cc6c4CCC6)CCC5)nc3[nH]2)cc1`: the IC50 in series [1] (read-out: IC50) came out at 3 µM. Still for that read-out and setting: the same measure for `Cn1cncc1Cc1cc(=O)n2nc(Nc3c4c(cc5c3CCC5)CCC4)nc2[nH]1`: 16 µM; for `Cc1ccccc1Cc1cc(=O)n2nc(Nc3c4c(cc5c3CCC5)CCC4)nc2[nH]1`: 4 µM; for `Cn1ccc(Cc2cc(=O)n3nc(Nc4c5c(cc6c4CCC6)CCC5)nc3[nH]2)n1`: 1.8 µM. The same measure, in the same setting: the value for `O=c1cc(CC2CCCCC2)[nH]c2nc(Nc3c4c(cc5c3CCC5)CCC4)nn12` was 4.5 µM; that for `O=c1cc(Cc2cccc(Cl)c2)[nH]c2nc(Nc3c4c(cc5c3CCC5)CCC4)nn12` was 2.8 µM; that for `O=c1cc(CC2CCOC2)[nH]c2nc(Nc3c4c(cc5c3CCC5)CCC4)nn12` (stereo not drawn) was 5 µM. The same measure, in the same setting: the same measure for `Cn1nccc1Cc1cc(=O)n2nc(Nc3c4c(cc5c3CCC5)CCC4)nc2[nH]1`: 2 µM. Take `Cc1ccn2nc(Nc3c4c(cc5c3CCC5)CCC4)nc2n1`: the IC50 in series [1] (read-out: IC50) was greater than 40 µM. Same read-out and setting: the same measure for `CN1CCC(c2cc(=O)n3nc(Nc4c5c(cc6c4CCC6)CCC5)nc3[nH]2)CC1`: greater than 40 µM; for `CN1CCOCC1Cc1cc(=O)n2nc(Nc3c4c(cc5c3CCC5)CCC4)nc2[nH]1` (stereo not drawn): 6 µM. On the same count and under the same terms, the same measure for `CN1CCOC(Cc2cc(=O)n3nc(Nc4c5c(cc6c4CCC6)CCC5)nc3[nH]2)C1` (stereo not drawn): 8.8 µM; for `O=c1cc(Cc2ccccc2)[nH]c2nc(Nc3c4c(cc5c3CCC5)CCC4)nn12`: 1.8 µM; for `Cc1[nH]c2nc(Nc3c4c(cc5c3CCC5)CCC4)nn2c(=O)c1Cc1ccccc1`: greater than 40 µM. For `O=c1cc(Cc2ccccc2Cl)[nH]c2nc(Nc3c4c(cc5c3CCC5)CCC4)nn12`, the 50% inhibitory concentration (IC50) result in [1] (pbmc) was “Nd(Insoluble)”.
